One block for each compound: values may come before it.
Test system: 966289-007-R4-J1-PDC complex spheroid viability
Assay: Anticancer human tumor 966289-007-R4-J1-PDC patient-derived pancreatic adenocarcinoma cell line growth inhibition [GQUAD]
Conditions: for IC50: curve of first compound; for viability, T/C: stronger effect = lower value
Outline: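 Viability of tumor cells grown as complex spheroids with endothelial and stromal cells, exposed to drug combinations. Top concentration at or near clinical Cmax (else 10 microM), diluted in half-log increments.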

[1] = second compound 0.0316 µM, first compound 0.0316 µM
[2] = second compound 0.0316 µM, first compound 0.1 µM
[3] = second compound 0.0316 µM, first compound 0.316 µM
[4] = second compound 0.0316 µM, first compound 1 µM
[5] = second compound 0.0316 µM, first compound 3.16 µM
[6] = second compound 0.0316 µM, first compound 10 µM
[7] = second compound 0.1 µM, first compound 0.0316 µM
[8] = second compound 0.1 µM, first compound 0.1 µM
[9] = second compound 0.1 µM, first compound 0.316 µM
[10] = second compound 0.1 µM, first compound 1 µM
[11] = second compound 0.1 µM, first compound 3.16 µM
[12] = second compound 0.1 µM, first compound 10 µM
[13] = second compound 0.316 µM, first compound 0.0316 µM
[14] = second compound 0.316 µM, first compound 0.1 µM
[15] = second compound 0.316 µM, first compound 0.316 µM
[16] = second compound 0.316 µM, first compound 1 µM
[17] = second compound 0.316 µM, first compound 3.16 µM
[18] = second compound 0.316 µM, first compound 10 µM
[19] = second compound 1 µM, first compound 0.0316 µM
[20] = second compound 1 µM, first compound 0.1 µM
[21] = second compound 1 µM, first compound 0.316 µM
[22] = second compound 1 µM, first compound 1 µM
[23] = second compound 1 µM, first compound 3.16 µM
[24] = second compound 1 µM, first compound 10 µM
[25] = second compound 3.16 µM, first compound 0.0316 µM
[26] = second compound 3.16 µM, first compound 0.1 µM
[27] = second compound 3.16 µM, first compound 0.316 µM
[28] = second compound 3.16 µM, first compound 1 µM
[29] = second compound 3.16 µM, first compound 3.16 µM
[30] = second compound 3.16 µM, first compound 10 µM
[31] = second compound 10 µM, first compound 0.0316 µM
[32] = second compound 10 µM, first compound 0.1 µM
[33] = second compound 10 µM, first compound 0.316 µM
[34] = second compound 10 µM, first compound 1 µM
[35] = second compound 10 µM, first compound 3.16 µM
[36] = second compound 10 µM, first compound 10 µM
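Note: spheroids exposed to the agents for seven days before readout.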
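Throughout, for viability, T/C: percent viability relative to DMSO vehicle control wells taken as 100%.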

IC50 (second compound 0.0316 µM): 2060 nM | IC50 (second compound 0.1 µM): < 31.6 nM | IC50 (second compound 0.316 µM): < 31.6 nM | IC50 (second compound 1 µM): < 31.6 nM | IC50 (second compound 3.16 µM): < 31.6 nM | IC50 (second compound 10 µM): < 31.6 nM
SMILES: CC(C)(O)C1CCC(Nc2ccc3ncc(-c4cccc(C(F)(F)F)c4)n3n2)CC1 (centres undefined) + Cc1cnc(CNC(=O)c2c(=O)c3ccc(N4CCCN(C)CC4)nc3n3c2sc2ccccc23)cn1
viability, T/C [1]: 103% | viability, T/C [2]: 105% | viability, T/C [3]: 108% | viability, T/C [4]: 97.3% | viability, T/C [5]: 22% | viability, T/C [6]: 16.9% | viability, T/C [7]: 32% | viability, T/C [8]: 29.9% | viability, T/C [9]: 35.4% | viability, T/C [10]: 26% | viability, T/C [11]: 5.94% | viability, T/C [12]: 7.03% | viability, T/C [13]: 8.94% | viability, T/C [14]: 10.5% | viability, T/C [15]: 9.21% | viability, T/C [16]: 9.55% | viability, T/C [17]: 3.64% | viability, T/C [18]: 2.73% | viability, T/C [19]: 6.09% | viability, T/C [20]: 5.79% | viability, T/C [21]: 5.01% | viability, T/C [22]: 4.88% | viability, T/C [23]: 0.44% | viability, T/C [24]: 0.4% | viability, T/C [25]: 3.22% | viability, T/C [26]: 4.22% | viability, T/C [27]: 3.14% | viability, T/C [28]: 0.95% | viability, T/C [29]: 0.08% | viability, T/C [30]: 0.08% | viability, T/C [31]: 0.04% | viability, T/C [32]: 0.09% | viability, T/C [33]: 0.14% | viability, T/C [34]: 0.13% | viability, T/C [35]: 0.14% | viability, T/C [36]: 0.14%

IC50 (second compound 0.0316 µM): 6500 nM | IC50 (second compound 0.1 µM): < 31.6 nM | IC50 (second compound 0.316 µM): < 31.6 nM | IC50 (second compound 1 µM): < 31.6 nM | IC50 (second compound 3.16 µM): < 31.6 nM | IC50 (second compound 10 µM): < 31.6 nM
SMILES: CCCS(=O)(=O)Nc1ccc(F)c(C(=O)c2c[nH]c3ncc(-c4ccc(Cl)cc4)cc23)c1F + Cc1cnc(CNC(=O)c2c(=O)c3ccc(N4CCCN(C)CC4)nc3n3c2sc2ccccc23)cn1
viability, T/C [1]: 117% | viability, T/C [2]: 109% | viability, T/C [3]: 111% | viability, T/C [4]: 99.9% | viability, T/C [5]: 89.8% | viability, T/C [6]: 27.1% | viability, T/C [7]: 34.8% | viability, T/C [8]: 34.5% | viability, T/C [9]: 32% | viability, T/C [10]: 26.7% | viability, T/C [11]: 25.5% | viability, T/C [12]: 16.1% | viability, T/C [13]: 11.4% | viability, T/C [14]: 10.7% | viability, T/C [15]: 8.91% | viability, T/C [16]: 8.64% | viability, T/C [17]: 9.45% | viability, T/C [18]: 8.17% | viability, T/C [19]: 6.02% | viability, T/C [20]: 7.02% | viability, T/C [21]: 5.64% | viability, T/C [22]: 4.34% | viability, T/C [23]: 4.77% | viability, T/C [24]: 3.64% | viability, T/C [25]: 4.08% | viability, T/C [26]: 4.51% | viability, T/C [27]: 4.86% | viability, T/C [28]: 3.92% | viability, T/C [29]: 3.36% | viability, T/C [30]: 1.47% | viability, T/C [31]: 0.08% | viability, T/C [32]: 0.11% | viability, T/C [33]: 0.13% | viability, T/C [34]: 0.26% | viability, T/C [35]: 0.86% | viability, T/C [36]: 0.14%

— PubChem BioAssay AID2060488 (Molecular Pharmacology Branch, DTP, NCI, 2025)
